From patent US20220047507A1, “MELFLUFEN DOSAGE REGIMENS FOR CANCER” (ONCOPEPTIDES AB, priority 2015, published 2022)

Key:
[1] = system: relapsed-refractory multiple myeloma (RRMM) patients; assay: Efficacy in patients with RRMM, Example 2a; assay type: in vivo, human
Method: Example 2: An open label single arm extension on the dose of 40 mg over 30 minutes of Example 1. Intravenous melflufen was administered over 30 minutes on Day 1 of a 21-day cycle or 28-day cycle (in combination with 40 mg dexamethasone (oral or intravenous) treatment on Days 1, 8 and 15) for at least 2 cycles, and up to the stated number of cycles. The cycle length was extended during the Example 2 Clinical Trial from 21 to 28 days per a protocol amendment to allow for a better recovery of neutrophils and thrombocytes before a new cycle is initiated.
Example 2a results are from a data cut-off of time point (a). Example 2b results are from a data cut-off of time point (bi) for the efficacy data, which was approximately 12 months after time point (a); and from a data cut-off of time point (bii) for the safety data, which was approximately 10 months after time point (a).
By the data cut-off point for Example 2a, 38 patients with relapsing MM had been dosed with 40 mg of melflufen hydrochloride (the 40 mg dosage excludes the mass of the salt component) administered over 30 minutes every 3 weeks (21 days) in combination with weekly dexamethasone (day 1, 8 and 15). 162 doses of melflufen were administered in total. The median number of cycles initiated was 3 (1-13) and the median duration of treatment was 13 weeks (2-51). The mean dose intensity was 96% (77-100). By the data cut-off point, ten patients were still in treatment, 2 had completed treatment and 26 patients discontinued from treatment (15 due to AEs, 8 due to PD, 2 deaths and 1 for other reasons). Twenty-seven patients were still in the study (10 patients in treatment and 17 in follow-up), while 11 patients were off study (8 patients due to death, 1 due to PD, 1 withdrew consent and 1 lost in follow-up).
Twenty-seven patients were evaluable for efficacy (per the protocol, these patients had received at least two cycles of melflufen and had adequate follow-up assessments). 11 patients were not evaluable for response due to rapid early progression (7), early termination due to adverse events (3) or too early to assess (1).

[2] = system: relapsed-refractory multiple myeloma (RRMM) patients; assay: Efficacy in patients with RRMM, Example 2a; assay type: in vivo, human; settings: Evaluable ≥ 1 cycle, n 35
clinical = settings: human, in vivo, iv; for AUC(0-t): AUC0-4; for AUC(0-inf): AUCinf
[3] = Evaluable ≥ 2 cycles, n 27, listed as Melflufen
[4] = Number of refractory agents 0, Example 2a (n = 27)
[5] = Number of refractory agents 1, Example 2a (n = 27)
[6] = Number of refractory agents 2, Example 2a (n = 27)
[7] = Number of refractory agents 3, Example 2a (n = 27)
[8] = Number of refractory agents 4, Example 2a (n = 27)
[9] = Pomalidomide refractory, Example 2a, 27 evaluable
[10] = refractory status None, Example 2a, 27 evaluable
[11] = refractory status PI + IMiD + Alkylator, Example 2a, 27 evaluable

CCOC(=O)[C@H](Cc1ccc(F)cc1)NC(=O)[C@@H](N)Cc1ccc(N(CCCl)CCCl)cc1.Cl [melflufen, L-Melphalanyl-4-fluoro-L-phenylalanine ethyl ester]
Clinical Benefit Rate (CBR) ([1]; Evaluable ≥ 1 cycle, n 35): 43%
Minimal Response (MR), patients ([1]; Evaluable ≥ 1 cycle, n 35): 4
Overall Response Rate (ORR) ([1]; Evaluable ≥ 1 cycle, n 35): 31%
Stable Disease (SD), patients ([1]; Evaluable ≥ 1 cycle, n 35): 12
Very Good Positive Response (PR), patients ([1]; Evaluable ≥ 1 cycle, n 35): 2
Clinical Benefit Rate (CBR) ([1]; Evaluable ≥ 2 cycles, n 27): 56%
Minimal Response (MR), patients ([1]; Evaluable ≥ 2 cycles, n 27): 4
Overall Response Rate (ORR) ([1]; Evaluable ≥ 2 cycles, n 27): 41%
Positive Response (PR), patients ([1]; Evaluable ≥ 2 cycles, n 27): 9
Progressive Disease (PD), patients ([1]; Evaluable ≥ 2 cycles, n 27): 1
Stable Disease (SD), patients ([1]; Evaluable ≥ 2 cycles, n 27): 11
Very Good Positive Response (PR), patients ([1]; Evaluable ≥ 2 cycles, n 27, 40 mg over 30 min + dexamethasone): 2
Clinical Benefit Rate (CBR) [1, 3]: 56%
Overall Response Rate (ORR) [1, 3]: 41%
median duration of response (DOR) ([1]; Example 2a, 4 events in 11 responding patients): 9.6 months
median progression free survival (PFS) ([1]; Example 2a, 13 events in 27 patients): 9.4 months
hazard ratio for melflufen compared to pomalidomide (PFS) ([1]; Example 2a, all treated n=38 vs published pomalidomide trial): 0.68 (0.44-1.05)
CBR(≥MR) [1, 4]: (100) %
ORR (≥PR) [1, 4]: (100) %
CBR(≥MR) [1, 5]: (54) %
ORR (≥PR) [1, 5]: (38) %
CBR(≥MR) [1, 6]: (57) %
ORR (≥PR) [1, 6]: (43) %
CBR(≥MR) [1, 7]: (63) %
ORR (≥PR) [1, 7]: (44) %
CBR(≥MR) [1, 8]: (71) %
ORR (≥PR) [1, 8]: (43) %
CRR (≥MR) [1, 9]: (50) %
ORR (≥PR) [1, 9]: (30) %
reduction in risk of death over 16 months compared to pomalidomide ([1]; RRMM patient population, Example 2a): 32%
CRR (≥MR) ([1]; Triple refractory (2 PI/ImiD + 1 ImiD/PI), Example 2a, 27 evaluable): (60) %
best response of minimal response (MR) or better, n patients ([1]; of 27 evaluable): 15
confirmed PR, n patients ([1]; of 27 evaluable): 11
CRR (≥MR) ([1]; refractory status Alkylator, Example 2a, 27 evaluable): (64) %
CRR (≥MR) ([1]; refractory status IMiD, Example 2a, 27 evaluable): (52) %
CRR (≥MR) [1, 10]: (100) %
ORR (≥PR) [1, 10]: (100) %
CRR (≥MR) [1, 11]: (44) %
ORR (≥PR) [1, 11]: (33) %
CRR (≥MR) ([1]; refractory status PI + IMiD, Example 2a, 27 evaluable): (44) %
CRR (≥MR) ([1]; refractory status PI, Example 2a, 27 evaluable): (47) %
Positive Response (PR), patients [2]: 9
Progressive Disease (PD), patients [2]: 8
AUC(0-t) (clinical; 15 mg): 13.5 ng·h/mL
AUC(0-inf) (clinical; 15 mg): 16.3 ng·h/mL
Cmax (clinical; 15 mg): 39 ng/mL
half-life (clinical; 15 mg, T1/2): 13 min
tmax (clinical; 15 mg): 15 min
AUC(0-t) (clinical; 25 mg): 40.8 ng·h/mL
AUC(0-inf) (clinical; 25 mg): 40.8 ng·h/mL
Cmax (clinical; 25 mg): 102 ng/mL
half-life (clinical; 25 mg, T1/2): 4.6 min
tmax (clinical; 25 mg): 12 min
AUC(0-t) (clinical; 40 mg): 89.3 ng·h/mL
AUC(0-inf) (clinical; 40 mg): 89.3 ng·h/mL
Cmax (clinical; 40 mg): 222 ng/mL
half-life (clinical; 40 mg, T1/2): 1.1 min
tmax (clinical; 40 mg): 15 min
AUC(0-t) (clinical; 55 mg): 102 ng·h/mL
AUC(0-inf) (clinical; 55 mg): 102 ng·h/mL
Cmax (clinical; 55 mg): 245 ng/mL
half-life (clinical; 55 mg, T1/2): 2.7 min
tmax (clinical; 55 mg): 25 min
half-life (clinical; half-life of melflufen concentrations after end of infusion): 3 to 5 min
